According to PubChem BioAssay (NCI):
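Values below derive from 48-hour exposures of cells grown in 96-well plates, with endpoints linearly interpolated between the two concentrations bracketing the appropriate inhibition level. TGI: concentration producing complete growth inhibition.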

Legend:
Experiment in all cases: NCI-60 cell line screen, 48 h
[1] = tested on: MDA-MB-231 breast
[2] = tested on: HOP-62 NSCLC
[3] = tested on: A549 NSCLC
[4] = tested on: M14 melanoma
[5] = tested on: SK-OV-3 ovarian

| SMILES | TGI [1] [µM] | TGI [2] [µM] | TGI [3] [µM] | TGI [4] [µM] | TGI [5] [µM] |
| --- | --- | --- | --- | --- | --- |
| CC1=CC2(C)C=C[C@@H]1C(=O)[C@@]1(C)CC[C@@](O)(C(C)C)[C@H]1CC2 | 35.5 | 35.2 | > 100 | 35.8 | 54.6 |
| COc1ccc(COCC[C@H](C)OC2OC(CO[Si](C)(C)C(C)(C)C)C(O)C(O)C2O)cc1 (stereo not given in full) | > 100 | > 100 | > 100 | > 100 | > 100 |
| COC1(OC)CCN(Cc2ccccc2)C1=O | 38.8 | 38.6 | 32.3 | 23 | > 100 |
| CCOC(=O)/C=C(/C(=O)OCC)n1ccc(=O)n(Cc2cn(CCCCOC(C)=O)nn2)c1=O | > 100 | > 100 | > 100 |  | > 100 |
| CCCCC/C=C\C=C\CCCCCCCCC(=O)OC | > 100 | > 100 | > 100 | > 100 | > 100 |
| Cc1ccc(NC(=O)c2cccc(OP(=O)(Nc3ccc(C)cc3)Nc3ccc(C)cc3)c2)cc1 | 16.1 | > 100 | 27.2 | 9.08 | > 100 |
| COc1cc(-c2nc(N)c(C#N)c3c2CCS(=O)(=O)c2ccc(C)cc2-3)cc(OC)c1OC | 56.3 | > 100 | > 100 | > 100 |  |
| Nc1ncnc2c1ccn2CC#CCO | > 100 | > 100 | > 100 | > 100 | > 100 |
| Cc1cn(C2CC(O)C(Cn3nncc3Cn3cnc4c(N)ncnc43)O2)c(=O)[nH]c1=O (stereo not given) |  | > 100 | > 100 | > 100 | > 100 |
| C1=NN2C(c3ccccc3)=NOC2C2C(c3ccccc3)=NOC12 (stereo not given) | > 100 | > 100 | > 100 | > 100 | > 100 |
| O=[N+]([O-])C(C(Cl)=C(Cl)Cl)=C(N1CCCCC1)N1CCCCC1 | > 100 | > 100 | > 100 | > 100 | > 100 |
| COc1cc2c(cc1NC(=O)c1ccccc1)c1c(n2S(=O)(=O)c2ccccc2)CCN(S(=O)(=O)c2ccccc2)C1 |  | > 100 | > 100 | > 100 | > 100 |
| Cn1c2ncccc2n2c(=O)cc(O)cc12 | > 100 | > 100 | > 100 | > 100 | > 100 |
| O=C1CC(n2ccnc2)c2c(Cl)sc(Cl)c21 (stereo not given) | 36.5 | 51.9 | > 64.7 | 35.3 | > 79.5 |
| Cc1cc(NS(=O)(=O)c2ccc(NO)cc2)no1 | > 100 | > 100 | > 100 | > 100 | > 100 |
| COC(=O)c1cc(/C=C/C(=O)Cc2ccccc2)cn1S(=O)(=O)c1ccccc1 | > 100 | > 100 | > 100 | > 100 | > 100 |
| CC1(C)CC(=O)c2c(-c3ccc(Cl)cc3)c(C#N)c(=S)n(C3OC(CO)C(O)C(O)C3O)c2C1 (stereo not given) | > 100 | > 100 | > 100 | > 100 |  |

| SMILES | TGI [1] [µM] | TGI [2] [µM] | TGI [3] [µM] | TGI [4] [µM] | TGI [5] [µM] |
| --- | --- | --- | --- | --- | --- |
| NC(=O)C1=C(O)[C@@]2(O)C(=O)C3=C(O)c4c(O)cccc4CC3C[C@H]2CC1=O (stereo not given in full) | 11.1 | 14.1 | 14.9 | 13.2 | > 28.7 |
| O=c1ccn(C/C=C/c2ccccc2)c(=S)n1C/C=C/c1ccccc1 | > 100 | > 100 | > 100 | > 100 | > 100 |
| O=C(c1ccccc1)c1ccc(N2C(=O)/C(=C/c3cccc(Oc4ccccc4)c3)N=C2c2ccccc2)c(N2C(=O)/C(=C/c3cccc(Oc4ccccc4)c3)N=C2c2ccccc2)c1 | > 100 | > 100 | > 100 | > 100 | > 100 |
| CC1(C)N=C(C(N)=O)c2ncn(Cc3ccccc3)c2N1 | > 100 | > 100 | > 100 | > 100 | > 100 |
| COc1ccc2nc3ccc(OC)cc3c(S(=O)Cc3ccccc3)c2c1 (stereo not given) | 30.8 | 33.4 | 37.3 | 30.1 | 33.9 |
| O=C(Nc1ccccc1)OCCN=c1c2ccccc2ccc2ccccc12 | > 100 | > 100 | > 100 | 40.8 | > 100 |
| CC/C(Cl)=N\OC(=O)Nc1ccc(F)c(Cl)c1 | 41.5 | 34.3 | 54.9 | 23.1 | 32.5 |
| CCOC(=O)c1c2ccccc2n2c(=O)n(-c3ccc(OC)cc3)nnc12 | > 100 | 63 | > 100 | > 100 | > 63.9 |
| COc1ccc(/C=C2/SC(=Nc3ccccc3)N(NC(=O)Cc3ccccc3)C2=O)cc1 | > 100 | > 100 | > 100 | > 100 | > 100 |
| CCOC(=O)N1c2ccccc2N(C(=O)OCC)C1CC(=O)/C=C/c1ccccc1 | > 100 | 17.6 | 18.1 | 19.3 | 23 |
| COc1nc(=O)[nH]c2c1C(c1ccc([N+](=O)[O-])cc1)c1c(OC)nc(=O)[nH]c1O2 | > 100 | > 100 | > 100 | > 100 | > 100 |
| Cc1n[nH]c(=O)n1/N=C/c1ccco1 | > 100 | > 100 | > 100 | > 100 | > 100 |
| Cc1cc(-c2nc3cc(F)ccc3s2)ccc1N | > 73.6 | 72 | > 100 | > 88.8 | > 100 |
| O=C1CSC(c2ccccc2)N1c1ccc(-c2ccc(-n3c(-c4ccccc4)nc4ccccc4c3=O)cc2)cc1 (stereo not given) | > 100 | > 100 | > 100 | > 100 | > 100 |
| COc1ccc2nc3cccc([N+](=O)[O-])c3c(NCCC(=O)O)c2c1 | > 10 | > 10 | > 10 | > 10 | > 10 |
| Cc1nc(C)c(N2CCN(Cc3ccccc3)CC2)c(=O)[nH]1 | > 100 | > 100 | > 100 | > 100 | > 100 |
| CN(C)c1n2c3ccc([N+](=O)[O-])cc3n3c(N(C)C)[n+]4ccccc4c3c2c2cccc[n+]12 | > 100 | > 100 | > 100 | > 100 | > 100 |
